# Source: patent US10308682B2, “Inhibition of tumor growth with aggregates of small molecules” (BRANDEIS UNIVERSITY, priority 2013, dated 2019)
# Key:
# [1] = cited from earlier work
# HeLa cells = assay: Cell viability assay (MTT), HeLa cells; format: cell-based
# Description: Cells in exponential growth phase were seeded in a 96 well plate at a concentration of 50,000 cell/well. The cells were allowed to attach to the wells for 24 h at 37° C., 5% CO2, then the culture medium was removed and 100 μL new culture medium containing 1 at gradient concentrations was placed into each well. After culturing at 37° C., 5% CO2 for desired time, each well was added by 10 μL of 5 mg/mL MTT 43-(4,5-Dimethylthiazol-2-yl)-2,5-diphenyltetrazolium bromide), and the plated cells were incubate at dark for 4 h. 100 μL 10% SDS with 0.01 M HCl was added to each well to stop the reduction reaction and to dissolve the purple. After incubation of the cells at 37° C. for overnight, the viability is measured. Data represent the mean±standard deviation of three independent experiments.
# The estimation of the threshold concentration of aggregation (320-340 μM) for 1 allows us to examine the cytotoxicity of 1 in monomer and molecular aggregate forms. We first tested the cytotoxicity of 1 towards HeLa cells, the most widely studied cancer cell line, below and above the threshold concentration.
# [2] = Self-assembly: gelation and aggregation ability; format: physicochemical
# Source text: FIG. 22 depicts the characteristics and cytotoxicity of a structural analog of 1.
# Another often overlooked feature of amyloid oligomers is that their cytotoxicity is independent of chirality of the amino acids.
Compound,IC50 (cytotoxicity of aberrant protein aggregates) [1] [µg/mL],"cytotoxicity (MTT, HeLa cells) compared with 1 (HeLa cells)",gelation ability compared with 1 [2]
transthyretin,200,–,–
O=C(Cc1ccc2ccccc2c1)N[C@@H](Cc1ccc(O)cc1)C(=O)N[C@@H](Cc1ccc(O)cc1)C(=O)O [Nap-YY],–,lower cytotoxicity than 1,poorer gelation ability
